Results on two molecules are retold here after patent publication US20080233102A1, “Drug Therapy for Celiac Sprue” (priority 2002, published 2008).

The subject of experiment [1] is bovine epidermal transglutaminase. To be noted: Castelhano et al., Bioorg. Chem. (1988) 16, 335-340; cited from earlier work.
Experiment [2] concerns the target T1, recombinant human tissue transglutaminase (Homo sapiens, UniProt P21980).
T1 construct: made in house
T1 sequence (P21980 1-687): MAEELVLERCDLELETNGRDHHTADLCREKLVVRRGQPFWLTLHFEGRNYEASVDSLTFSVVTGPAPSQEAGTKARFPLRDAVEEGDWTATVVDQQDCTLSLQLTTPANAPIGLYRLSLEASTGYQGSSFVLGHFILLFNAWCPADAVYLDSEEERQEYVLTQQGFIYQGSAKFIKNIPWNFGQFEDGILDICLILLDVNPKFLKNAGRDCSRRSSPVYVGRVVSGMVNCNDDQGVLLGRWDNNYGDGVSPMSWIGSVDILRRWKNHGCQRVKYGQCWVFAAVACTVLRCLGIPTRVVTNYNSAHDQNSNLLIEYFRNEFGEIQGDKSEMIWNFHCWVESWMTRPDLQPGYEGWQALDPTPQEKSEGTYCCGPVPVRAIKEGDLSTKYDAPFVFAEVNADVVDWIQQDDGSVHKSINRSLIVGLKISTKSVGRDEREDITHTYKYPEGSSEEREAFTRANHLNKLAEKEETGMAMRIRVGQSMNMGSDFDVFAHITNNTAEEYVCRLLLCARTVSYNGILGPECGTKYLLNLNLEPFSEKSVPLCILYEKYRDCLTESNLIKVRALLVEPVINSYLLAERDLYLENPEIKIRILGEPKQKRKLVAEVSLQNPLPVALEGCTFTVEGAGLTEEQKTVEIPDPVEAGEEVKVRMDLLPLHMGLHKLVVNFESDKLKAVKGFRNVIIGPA
As to the kind of experiment: tTGase assay with recombinant human tissue transglutaminase. Format: biochemical. To be noted: dihydroisoxazole inhibitors of human tTGase; irreversible inactivation.

Experiment [3] has as its target T2, Tissue transglutaminase (tTG) (Homo sapiens, UniProt P21980).
T2 sequence (P21980 1-687): T1 sequence (P21980 1-687)
As to the kind of experiment: Inhibition of tTG (residual activity, glutamate dehydrogenase coupled assay). The conditions noted are these: isatin derivatives; reversible, competitive inhibition constant; read-out: Kl. It counts as biochemical. The method, then: Inhibition of tTG. tTG (9 μM) was inactivated in 200 mM MOPS, pH=7.1, 5 mM CaCl2, 1 mM ETDA at 30° C. containing 0-600 μM Pro-Gln-Pro-Aci-Leu-Pro-Tyr. Every 20 minutes a 40 μl aliquot was removed and residual tTG activity was assayed in 0.5 ml reaction containing 200 mM MOPS, pH=7.1, 5 mM CaCl2, 1 mM ETDA, 10 mM α-ketoglutarate, 180 U/ml glutamate dehydrogenase (Biozyme laboratories) at 30° C. for 20 minutes by measuring the decrease of absorption at 340 nm. Residual activity was corrected by the corresponding uninhibited tTG reaction (0 μM inhibitor) and fitted to an exponential decay. Kinetic parameters were obtained by double-reciprocal plotting of the apparent second-order inactivation constant or, for isatin analogs, by fitting the data for reversible inhibitors to a standard Michaelis Menten equation with a competitive inhibition constant.

On to `O=C(N[C@@H](Cc1ccccc1)C(=O)NCC1CC(Br)=NO1)OCc1ccccc1` (stereo partly drawn) [1a, {(S)-1-[(3-Bromo-4,5-dihydro-isoxazol-5-ylmethyl)-carbamoyl]-2-phenyl-ethyl}-carbamic acid benzyl ester], for which, in experiment [1], the “Inhibition of bovine epidermal transglutaminase” value is reported as “inhibitor”. Moreover, the “Inhibition Rate Constants (kinh)” value in experiment [2] was found to be 1.3 min⁻¹.

`O=C1Nc2ccc(F)cc2C1=O` [R2 = R3 = H; R1 = F]: the Ki in experiment [3] amounted to 18 µM.
